Patent US20070243548A1, “Calumenin-directed diagnostics and therapeutics for cancer and chemotherapeutic drug resistance” (priority 2006, published 2007)

Key:
calumenin = experiment: Immunoblot of calumenin expression after siRNA transfection of MCF-7 cells; type: cell-based, human; details: compared to mock and control siRNA, FIG. 2
Text: To establish the importance of calumenin to the expression of the drug-resistant phenotype in MCF-7 cell lines, calumenin expression was silenced using RNAi. Briefly, the following siRNA duplexes targeting the human calumenin mRNA were designed and purchased either from Ambion (Austin, Tex.) or Invitrogen (Carlsbad, Calif.). The siRNA duplex sequences corresponding to nucleotides […] (REFSEQ ID NUMBER: NM_001428) targeting the start of the calumenin mRNA transcript were:
For a typical siRNA transfection, […] of the annealed siRNA duplex was mixed with 1.4 ml of Opti-MEM reagent (Invitrogen). In another tube, […] of Oligofectamine reagent (Invitrogen, Carlsbad, Calif.) was mixed with […] of Opti-MEM. The two solutions were combined and mixed gently by inversion and incubated for 20 min. at RT. […]
To determine the ability of cells to proliferate after they were transfected with […] or control siRNAs as indicated above, the cells were seeded the next day in a 96-well plate at 5×10^3 cells/well in quadruplicate. […] The resulting fluorescence was measured in a Wallac microplate reader (PerkinElmer, Inc., Boston, Mass.) using a 535 nm filter. […] The number of cells was determined by extrapolation from a standard curve.

MCF-7 cells = experiment: Phase contrast viability assay (cell morphology); type: cell-based, human; details: calumenin-depleted MCF-7 cells; FIG. 3
MCF-7/ADR xenografts = experiment: Mammary adenocarcinoma MCF-7/ADR xenografts in nude mice; type: in vivo; details: adenocarcinomas, vs mice treated with control siRNA
Experimental: In further studies, the efficacy of a calumenin-targeted therapeutic in treating an MDR mammary adenocarcinoma cells (MCF/AR) is assessed. Briefly, male […] nude mice 5 to 7 weeks old, weighing 18 g to 22 g, are used for the MCF-7/ADR xenografts. Mice receive a subcutaneous (s.c.) injection of the cells using 5×10^5 cells/inoculation under the shoulder. When the s.c. tumor is approximately 5.5 mm in size, mice are randomized into treatment groups of 4 including controls and groups receiving taxol or doxorubicin, alone (4 mg/kg), intraperitoneally (i.p.) every 2 days, calumenin siRNA alone (3 μg daily for 16 days), or both taxol and calumenin siRNA (3 μg daily for 16 days for each treatment). […] The animal's weight is measured every 4 days. Tumor growth starting on the first day of treatment is measured and the volume of the xenograft is monitored every 4 days. […] Tumor tissue is excised from the mice and its weight is measured. […]
In further studies, the efficacy of a calumenin-targeted therapeutic in treating a mammary adenocarcinoma cells (MCF-7) is assessed. […] The animal's weight is measured every 4 days. Tumor growth starting on the first day of treatment is measured and the volume of the xenograft is monitored every 4 days. […] Tumor tissue is excised from the mice and its weight is measured. […]

With “Calumenin siRNA: siRNA duplex targeting human calumenin mRNA; sense 5′-GAAGGACCGUGUACAUCAU-3′ (SEQ ID NO: 1), anti-sense 5′-AUGAUGUACACGGUCCUUC-3′ (SEQ ID NO: 2), 3′TT overhangs (3' TT overhangs on both strands, further chemistry not given here)” the calumenin expression (calumenin) was “significantly decreased”, the cell morphology (MCF-7 cells) was “more rounded cell morphology” and the “total cell number in tumors” value (MCF-7/ADR xenografts) was “lower”. For the same substance, the tumors by weight (MCF-7/ADR xenografts; 3 μg siRNA daily for 16 days) was “smaller”.
